Data reported in paper PMC6458995, “MAP4K4 Inhibition Promotes Survival of Human Stem Cell-Derived Cardiomyocytes and Reduces Infarct Size In Vivo” (Cell Stem Cell, 2019).

How the values were obtained:
Experiment in all cases: Dundee kinase panel
Assay type in all cases: biochemical
Settings in all cases: for remaining activity at 1 µM: read-out: residual activity
EPH-A4 = target: T1, EPH-A4 (Homo sapiens, UniProt P54764)
T1 construct: lines 1-140) and Reaction Biology
Experimental: (§1) Compounds were screened at 1 μM. For key hits, pIC50 values were then determined by HTRF as above. […] Stability in mouse and human liver microsomes was determined by Cyprotex.

MAPKAP-K2 = target: T2, MAPKAP-K2 (Homo sapiens, UniProt P49137)
T2 construct: lines 1-140) and Reaction Biology
Experimental: as §1

TSSK1 = target: T3, TSSK1 (Homo sapiens, UniProt Q9BXA7)
T3 construct: lines 1-140) and Reaction Biology
T3 sequence (Q9BXA7 1-367): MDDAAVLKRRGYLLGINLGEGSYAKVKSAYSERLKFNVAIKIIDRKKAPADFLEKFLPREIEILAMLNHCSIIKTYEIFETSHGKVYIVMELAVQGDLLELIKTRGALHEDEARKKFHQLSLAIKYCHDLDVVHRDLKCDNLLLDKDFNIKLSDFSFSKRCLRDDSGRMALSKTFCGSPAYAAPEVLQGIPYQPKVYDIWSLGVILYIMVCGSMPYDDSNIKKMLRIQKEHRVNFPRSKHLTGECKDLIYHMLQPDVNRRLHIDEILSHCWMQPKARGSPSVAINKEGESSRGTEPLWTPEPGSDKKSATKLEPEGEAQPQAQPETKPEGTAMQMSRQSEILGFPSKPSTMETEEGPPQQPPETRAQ
Experimental: as §1

MAP4K3 = target: T4, MAP4K3 (Homo sapiens, UniProt Q8IVH8)
T4 construct: lines 1-140) and Reaction Biology
T4 sequence (Q8IVH8 1-894): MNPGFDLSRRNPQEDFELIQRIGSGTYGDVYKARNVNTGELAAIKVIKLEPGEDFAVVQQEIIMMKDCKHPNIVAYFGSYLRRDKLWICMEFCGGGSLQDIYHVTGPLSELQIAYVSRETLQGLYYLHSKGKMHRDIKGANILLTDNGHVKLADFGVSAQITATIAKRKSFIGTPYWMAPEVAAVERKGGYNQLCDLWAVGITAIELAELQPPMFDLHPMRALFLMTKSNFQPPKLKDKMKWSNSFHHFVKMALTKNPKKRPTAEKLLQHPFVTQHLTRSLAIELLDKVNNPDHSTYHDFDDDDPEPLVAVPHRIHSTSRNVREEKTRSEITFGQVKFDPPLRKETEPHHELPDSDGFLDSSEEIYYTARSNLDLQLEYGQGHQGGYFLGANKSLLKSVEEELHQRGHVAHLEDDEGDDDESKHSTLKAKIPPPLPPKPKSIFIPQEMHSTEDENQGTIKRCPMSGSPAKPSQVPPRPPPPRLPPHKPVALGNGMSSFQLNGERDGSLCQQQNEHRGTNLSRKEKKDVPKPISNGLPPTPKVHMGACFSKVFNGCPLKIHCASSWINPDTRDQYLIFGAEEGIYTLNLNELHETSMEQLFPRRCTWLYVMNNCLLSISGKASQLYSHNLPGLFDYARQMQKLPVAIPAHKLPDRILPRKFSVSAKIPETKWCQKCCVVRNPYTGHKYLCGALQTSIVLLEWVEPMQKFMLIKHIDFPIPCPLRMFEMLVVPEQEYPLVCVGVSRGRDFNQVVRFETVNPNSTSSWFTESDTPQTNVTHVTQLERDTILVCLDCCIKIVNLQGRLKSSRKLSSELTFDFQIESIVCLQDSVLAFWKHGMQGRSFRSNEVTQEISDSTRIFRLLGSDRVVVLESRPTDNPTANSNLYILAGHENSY
Experimental: as §1

MSK1 = target: T5, MSK1 (Homo sapiens, UniProt O75582)
T5 construct: lines 1-140) and Reaction Biology
Experimental: as §1

TTBK1 = target: T6, TTBK1 (Homo sapiens, UniProt Q5TCY1)
T6 construct: lines 1-140) and Reaction Biology
Experimental: as §1

S6K1 = target: T7, S6K1 (Homo sapiens, UniProt P23443)
T7 construct: lines 1-140) and Reaction Biology
Experimental: as §1

MKK6 = target: T8, MKK6 (Homo sapiens, UniProt P52564)
T8 construct: lines 1-140) and Reaction Biology
T8 sequence (P52564 1-334): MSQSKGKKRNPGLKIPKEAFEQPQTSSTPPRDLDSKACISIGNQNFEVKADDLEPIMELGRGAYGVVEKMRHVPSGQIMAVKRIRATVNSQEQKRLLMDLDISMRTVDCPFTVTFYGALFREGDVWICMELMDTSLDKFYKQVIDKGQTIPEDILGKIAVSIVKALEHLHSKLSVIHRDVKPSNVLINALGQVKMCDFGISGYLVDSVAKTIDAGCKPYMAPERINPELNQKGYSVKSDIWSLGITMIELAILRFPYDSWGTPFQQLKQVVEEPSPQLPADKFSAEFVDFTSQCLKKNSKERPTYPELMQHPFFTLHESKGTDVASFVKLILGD
Experimental: as §1

PIM2 = target: T9, PIM2 (Homo sapiens, UniProt Q9P1W9)
T9 construct: lines 1-140) and Reaction Biology
Experimental: as §1

HIPK3 = target: T10, HIPK3 (Homo sapiens, UniProt Q9H422)
T10 construct: lines 1-140) and Reaction Biology
Experimental: as §1

PKCa = target: T11, PKCa (Homo sapiens, UniProt P17252)
T11 construct: lines 1-140) and Reaction Biology
Experimental: as §1

GSK3b = target: T12, GSK3b (Homo sapiens, UniProt P49841)
T12 construct: lines 1-140) and Reaction Biology
Experimental: as §1

T5 sequence (O75582 whole entry): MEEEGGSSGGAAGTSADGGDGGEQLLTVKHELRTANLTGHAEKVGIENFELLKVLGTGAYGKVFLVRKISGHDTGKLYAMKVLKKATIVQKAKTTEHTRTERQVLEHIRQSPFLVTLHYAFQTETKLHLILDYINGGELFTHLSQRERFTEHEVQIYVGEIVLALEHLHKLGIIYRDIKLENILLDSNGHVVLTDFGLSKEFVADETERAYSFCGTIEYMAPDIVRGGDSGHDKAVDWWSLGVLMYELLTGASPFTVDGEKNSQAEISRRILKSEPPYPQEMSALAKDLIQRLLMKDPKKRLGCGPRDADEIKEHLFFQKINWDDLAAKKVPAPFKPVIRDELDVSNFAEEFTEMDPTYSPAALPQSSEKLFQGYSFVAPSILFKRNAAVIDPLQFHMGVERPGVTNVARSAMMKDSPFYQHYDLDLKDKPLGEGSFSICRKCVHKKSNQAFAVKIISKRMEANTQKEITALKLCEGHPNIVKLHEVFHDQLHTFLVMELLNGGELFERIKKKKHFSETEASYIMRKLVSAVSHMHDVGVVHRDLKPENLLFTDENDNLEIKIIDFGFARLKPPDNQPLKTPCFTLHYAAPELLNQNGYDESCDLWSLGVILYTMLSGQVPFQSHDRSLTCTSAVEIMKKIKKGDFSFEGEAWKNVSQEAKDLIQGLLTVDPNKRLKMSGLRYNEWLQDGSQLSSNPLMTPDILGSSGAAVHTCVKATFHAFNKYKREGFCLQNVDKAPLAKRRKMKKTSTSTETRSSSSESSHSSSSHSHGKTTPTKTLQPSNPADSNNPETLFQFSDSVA
T2 sequence (P49137 whole entry): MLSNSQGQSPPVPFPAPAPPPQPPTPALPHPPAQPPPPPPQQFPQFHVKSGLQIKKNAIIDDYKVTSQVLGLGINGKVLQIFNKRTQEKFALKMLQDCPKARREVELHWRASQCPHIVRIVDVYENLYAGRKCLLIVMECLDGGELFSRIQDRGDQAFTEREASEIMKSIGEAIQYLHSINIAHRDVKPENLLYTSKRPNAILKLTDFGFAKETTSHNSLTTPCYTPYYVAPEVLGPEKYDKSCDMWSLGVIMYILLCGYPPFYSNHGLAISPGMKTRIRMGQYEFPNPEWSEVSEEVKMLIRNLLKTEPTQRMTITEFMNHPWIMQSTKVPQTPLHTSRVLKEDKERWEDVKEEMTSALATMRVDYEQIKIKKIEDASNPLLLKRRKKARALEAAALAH
T10 sequence (Q9H422 whole entry): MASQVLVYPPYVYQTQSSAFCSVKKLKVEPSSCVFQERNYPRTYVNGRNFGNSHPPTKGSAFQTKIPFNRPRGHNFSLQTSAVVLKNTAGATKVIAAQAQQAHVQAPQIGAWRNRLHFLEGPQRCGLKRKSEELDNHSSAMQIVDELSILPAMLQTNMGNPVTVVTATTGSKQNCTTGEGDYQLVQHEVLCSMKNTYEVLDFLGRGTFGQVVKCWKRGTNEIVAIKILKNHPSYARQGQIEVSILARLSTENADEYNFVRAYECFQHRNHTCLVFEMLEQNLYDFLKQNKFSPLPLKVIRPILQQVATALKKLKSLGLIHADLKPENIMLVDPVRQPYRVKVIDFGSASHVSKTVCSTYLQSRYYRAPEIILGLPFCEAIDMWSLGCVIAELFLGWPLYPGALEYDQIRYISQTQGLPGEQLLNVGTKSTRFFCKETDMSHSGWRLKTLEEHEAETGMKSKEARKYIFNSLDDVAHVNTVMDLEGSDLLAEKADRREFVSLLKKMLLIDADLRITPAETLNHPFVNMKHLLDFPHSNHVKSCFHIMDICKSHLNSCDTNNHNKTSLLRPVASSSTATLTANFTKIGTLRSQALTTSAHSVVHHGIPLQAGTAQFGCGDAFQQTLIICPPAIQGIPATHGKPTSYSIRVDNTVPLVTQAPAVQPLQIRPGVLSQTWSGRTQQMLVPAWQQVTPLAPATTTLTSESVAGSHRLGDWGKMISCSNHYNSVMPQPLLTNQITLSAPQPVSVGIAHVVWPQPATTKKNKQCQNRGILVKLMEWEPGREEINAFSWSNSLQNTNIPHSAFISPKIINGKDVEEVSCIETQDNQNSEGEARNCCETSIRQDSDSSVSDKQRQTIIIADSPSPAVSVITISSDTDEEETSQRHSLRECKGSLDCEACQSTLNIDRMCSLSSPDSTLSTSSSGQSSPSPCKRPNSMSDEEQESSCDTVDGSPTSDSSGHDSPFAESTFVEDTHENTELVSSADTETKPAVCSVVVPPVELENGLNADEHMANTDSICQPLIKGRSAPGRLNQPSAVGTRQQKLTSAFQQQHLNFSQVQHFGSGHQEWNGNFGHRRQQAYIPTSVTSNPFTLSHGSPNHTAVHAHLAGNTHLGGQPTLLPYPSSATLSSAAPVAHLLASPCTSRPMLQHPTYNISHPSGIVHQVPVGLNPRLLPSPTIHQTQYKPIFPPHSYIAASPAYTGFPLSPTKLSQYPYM
T6 sequence (Q5TCY1 whole entry): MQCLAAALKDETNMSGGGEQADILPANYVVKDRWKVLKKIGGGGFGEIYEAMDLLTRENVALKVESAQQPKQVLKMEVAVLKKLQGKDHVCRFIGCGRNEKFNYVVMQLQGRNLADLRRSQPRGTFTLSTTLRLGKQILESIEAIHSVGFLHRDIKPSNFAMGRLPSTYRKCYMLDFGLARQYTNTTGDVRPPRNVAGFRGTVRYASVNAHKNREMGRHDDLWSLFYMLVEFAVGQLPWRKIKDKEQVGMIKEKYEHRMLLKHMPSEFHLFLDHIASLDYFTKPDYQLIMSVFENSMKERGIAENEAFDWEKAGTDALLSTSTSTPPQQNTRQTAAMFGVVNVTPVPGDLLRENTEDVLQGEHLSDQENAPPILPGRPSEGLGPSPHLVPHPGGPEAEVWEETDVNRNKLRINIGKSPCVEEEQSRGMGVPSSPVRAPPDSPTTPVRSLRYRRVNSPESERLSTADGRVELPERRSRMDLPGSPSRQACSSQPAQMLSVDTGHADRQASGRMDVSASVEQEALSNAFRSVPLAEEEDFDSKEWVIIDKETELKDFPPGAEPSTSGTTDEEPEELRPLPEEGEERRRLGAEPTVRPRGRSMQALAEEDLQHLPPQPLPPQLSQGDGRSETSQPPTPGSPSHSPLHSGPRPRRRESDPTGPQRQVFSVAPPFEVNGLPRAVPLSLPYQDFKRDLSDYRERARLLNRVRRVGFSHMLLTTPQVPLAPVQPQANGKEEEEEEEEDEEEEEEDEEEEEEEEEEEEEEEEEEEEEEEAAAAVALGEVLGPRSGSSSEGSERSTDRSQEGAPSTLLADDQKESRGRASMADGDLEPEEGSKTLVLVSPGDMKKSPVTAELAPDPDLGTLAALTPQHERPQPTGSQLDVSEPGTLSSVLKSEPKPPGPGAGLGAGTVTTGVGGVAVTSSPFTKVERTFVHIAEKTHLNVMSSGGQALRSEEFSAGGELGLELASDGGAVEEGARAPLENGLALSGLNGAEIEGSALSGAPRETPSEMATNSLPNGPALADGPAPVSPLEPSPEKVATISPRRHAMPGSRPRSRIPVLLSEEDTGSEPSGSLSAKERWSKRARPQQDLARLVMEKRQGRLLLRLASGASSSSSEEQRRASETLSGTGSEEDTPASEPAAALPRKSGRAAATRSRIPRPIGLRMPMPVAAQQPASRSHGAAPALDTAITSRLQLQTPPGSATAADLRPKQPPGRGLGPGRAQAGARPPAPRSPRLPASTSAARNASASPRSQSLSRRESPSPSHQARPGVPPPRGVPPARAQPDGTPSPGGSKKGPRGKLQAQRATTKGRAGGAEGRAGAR
T1 sequence (P54764 20-986): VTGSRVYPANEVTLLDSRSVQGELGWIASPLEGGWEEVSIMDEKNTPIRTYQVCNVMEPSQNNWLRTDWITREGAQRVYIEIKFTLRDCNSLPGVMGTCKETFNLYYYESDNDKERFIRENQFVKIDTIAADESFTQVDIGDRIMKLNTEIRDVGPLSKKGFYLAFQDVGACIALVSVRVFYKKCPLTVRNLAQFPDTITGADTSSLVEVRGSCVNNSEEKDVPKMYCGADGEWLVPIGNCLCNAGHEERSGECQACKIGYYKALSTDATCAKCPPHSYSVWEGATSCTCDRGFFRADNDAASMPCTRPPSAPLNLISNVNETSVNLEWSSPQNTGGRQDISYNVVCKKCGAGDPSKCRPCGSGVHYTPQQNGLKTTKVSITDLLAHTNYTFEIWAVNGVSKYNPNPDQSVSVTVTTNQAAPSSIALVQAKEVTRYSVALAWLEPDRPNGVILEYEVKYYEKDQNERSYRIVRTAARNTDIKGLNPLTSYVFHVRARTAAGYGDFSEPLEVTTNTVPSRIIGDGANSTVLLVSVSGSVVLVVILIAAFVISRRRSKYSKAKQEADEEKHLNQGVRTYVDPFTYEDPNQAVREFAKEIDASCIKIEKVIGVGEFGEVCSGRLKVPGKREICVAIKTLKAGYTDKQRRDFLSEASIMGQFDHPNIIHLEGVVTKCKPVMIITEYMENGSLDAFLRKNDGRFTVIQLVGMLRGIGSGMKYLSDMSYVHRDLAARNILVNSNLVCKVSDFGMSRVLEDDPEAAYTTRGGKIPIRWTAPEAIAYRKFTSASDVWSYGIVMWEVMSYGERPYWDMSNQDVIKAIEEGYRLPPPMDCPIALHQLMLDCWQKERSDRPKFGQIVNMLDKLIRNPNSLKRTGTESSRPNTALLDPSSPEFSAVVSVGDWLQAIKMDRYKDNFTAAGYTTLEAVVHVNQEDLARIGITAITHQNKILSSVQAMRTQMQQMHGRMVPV
T9 sequence (Q9P1W9 whole entry): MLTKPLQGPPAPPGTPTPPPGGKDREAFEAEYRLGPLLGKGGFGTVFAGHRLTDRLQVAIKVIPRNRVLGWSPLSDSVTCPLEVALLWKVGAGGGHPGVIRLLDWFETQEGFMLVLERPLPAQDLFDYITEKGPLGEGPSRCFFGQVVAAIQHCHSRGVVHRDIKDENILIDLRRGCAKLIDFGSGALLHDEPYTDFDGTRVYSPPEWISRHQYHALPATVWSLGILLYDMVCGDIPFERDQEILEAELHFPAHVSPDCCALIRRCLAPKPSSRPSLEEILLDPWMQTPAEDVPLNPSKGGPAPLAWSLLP

| Structure (SMILES) | remaining activity at 1 µM (EPH-A4) | remaining activity at 1 µM (MAPKAP-K2) | remaining activity at 1 µM (TSSK1) | remaining activity at 1 µM (MAP4K3) | remaining activity at 1 µM (MSK1) | remaining activity at 1 µM (TTBK1) | remaining activity at 1 µM (S6K1) | remaining activity at 1 µM (MKK6) | remaining activity at 1 µM (PIM2) | remaining activity at 1 µM (HIPK3) | remaining activity at 1 µM (PKCa) | remaining activity at 1 µM (GSK3b) | further results |
| --- | --- | --- | --- | --- | --- | --- | --- | --- | --- | --- | --- | --- | --- |
| COCCOc1ccc(-c2cn(-c3ccccc3)c3nc[nH]c(=O)c23)cc1 [DMX-5804, 5-[4-(2-methoxy-ethoxy)-phenyl]-7-phenyl-3,7-dihydro-pyrrolo[2,3-d]pyrimidin-4-one] | 105% | 105% | 103% | 41% | 121% | 113% | 121% | 112% | 105% | 103% | 116% | 102% |  |
| Oc1ncnc2c1c(-c1ccccc1)cn2-c1ccccc1 [F1386-0303, 5,7-diphenyl-7H-pyrrolo[2,3-d]pyrimidin-4-ol] | 92% | 101% | 109% | 84% | 102% | 102% | 105% | 105% | 84% | 93% | 70% | 127% |  |
| Nc1ncc(C(=O)NC2CN(C(=O)C3CC3)C2)c2ccc(-c3cccc(F)c3)nc12 [GNE-495] |  |  |  |  |  |  |  |  |  |  |  |  | residual activity (EPH-A4; 1 μM): 72%; residual activity (MAPKAP-K2; 1 μM): 101%; residual activity (TSSK1; 1 μM): 77%; residual activity (MAP4K3; 1 μM): 7%; residual activity (MSK1; 1 μM): 69%; residual activity (TTBK1; 1 μM): 97%; residual activity (S6K1; 1 μM): 43%; residual activity (MKK6; 1 μM): 97%; residual activity (PIM2; 1 μM): 95%; residual activity (HIPK3; 1 μM): 81%; residual activity (PKCa; 1 μM): 50%; residual activity (GSK3b; 1 μM): 69% |
| O=C1Nc2ccc(I)cc2/C1=C/c1cc(Br)c(O)c(Br)c1 [GW5074] | 91% | 81% | 73% | 31% | 74% | 62% | 87% | 81% | 10% | 25% | 85% | 42% |  |
| O=C1Cc2c([nH]c3ccc(Br)cc23)-c2ccccc2N1 [Kenpaullone] | 96% | 89% | 46% | 14% | 90% | 88% | 97% | 102% | 67% | 87% | 94% | 6% |  |
